Laboratory results published in US7521538B2, “Crystal structure of the ternary complex of 14-3-3/Fusicoccin/PMA and methods for designing new herbicides” (Max-Planck-Gesellschaft zur Foerderung der Wissenschaften …, priority 2003, dated 2009).
Changes are numbered by the printed parent chain. Like-named read-outs stand apart in the source and are kept apart here. Non-standard residues stand in square brackets, D forms with d. Residues, ends and D or L forms follow the SMILES beside them. pT = C[C@@H](OP(=O)(O)O)[C@H](N)C(=O)O

Key:
[1] = biological target: T1, 14-3-3z N49Q / GST-PMA2-CT66 (Homo sapiens, UniProt P63104, N42Q); assay: GST-pulldown, 14-3-3 N49Q; assay type: binding; settings: pull-down, mutation N49Q
T1 construct: made in house
T1 sequence (P63104 1-245 N42Q): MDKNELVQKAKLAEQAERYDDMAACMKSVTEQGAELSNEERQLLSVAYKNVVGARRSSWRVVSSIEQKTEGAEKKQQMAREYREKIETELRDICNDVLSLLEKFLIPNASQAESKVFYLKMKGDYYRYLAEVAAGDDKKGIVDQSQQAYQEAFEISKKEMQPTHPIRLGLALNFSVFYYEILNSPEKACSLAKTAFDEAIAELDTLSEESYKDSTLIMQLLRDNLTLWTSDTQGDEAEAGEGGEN
Method: (§1) In order to study the functional relevance of selected amino acids within the above-described binding pocket, residues the following point mutants were analysed in respect FC binding: (a) N49Q, (b) D222E, (c) F126E and (d) I175E in the homologous sequence of human 14-3-3z. The mutant proteins were expressed, purified and FC binding were tested in an in vitro assay in the presence of the 66 C-terminal residues of a PMA-GST fusion construct.
(§2) Alternatively, a second in-vitro method was used to screen for fusicoccin binding. In this pull-down assay (FIG. 5), the GST-PMA fusion protein is immobilized on GSH-sepharose-beads and the his-tagged 14-3-3 protein will bind in the presence of fusioccin to the GST-fusion protein and can subsequently be found in the sepharose-fraction after washing and centrifugation of the beads. The detection again takes place via SDS-PAGE and Western-Blotting with subsequent immunodetection.

[2] = Solubility of FC in aqueous solutions; assay type: physicochemical
[3] = biological target: T2, 14-3-3z F126E / GST-PMA2-CT66 (Homo sapiens, UniProt P63104, F117E); assay: GST-pulldown, 14-3-3 F126E; assay type: binding; settings: pull-down, mutation F126E
T2 construct: made in house
T2 sequence (P63104 1-245 F117E): T1 sequence (P63104 1-245 N42Q) with Q42N, F117E
Method: as §1, §2

[4] = biological target: T3, 14-3-3z N49Q / PMA-GST fusion construct (Homo sapiens, UniProt P63104, N42Q); assay: Far-western-blot overlay, 14-3-3 N49Q; assay type: binding; settings: mutation N49Q
T3 construct: made in house
T3 sequence (P63104 1-245 N42Q): T1 sequence (P63104 1-245 N42Q)
Method: as §1
(§3) For the detection of FC binding a far-western-blot (FIG. 4) was performed. In this in vitro assay, the PMA-GST fusion construct, containing the 66 C-terminal residues of PMA, was immobilised on a nitrocellulose membrane via electroblotting of SDS-PAGE-separated proteins. The interacting protein, a his-tagged 14-3-3 construct was allowed to react with the GST-fusion protein in an overlay-solution. The interaction of these two proteins was mediated by fusicoccin. […] The actual binding of the his-tagged 14-3-3 protein was visualized after washing the membrane by immunodetecton with an anti-His-antibody, which was employed as primary antibody.

[5] = biological target: T4, 14-3-3z F126E / PMA-GST fusion construct (Homo sapiens, UniProt P63104, F117E); assay: Far-western-blot overlay, 14-3-3 F126E; assay type: binding; settings: mutation F126E
T4 construct: made in house
T4 sequence (P63104 1-245 F117E): T1 sequence (P63104 1-245 N42Q) with Q42N, F117E
Method: as §1, §3

[6] = biological target: T5, 14-3-3z D222E / PMA-GST fusion construct (Homo sapiens, UniProt P63104, D213E); assay: Far-western-blot overlay, 14-3-3 D222E; assay type: binding; settings: mutation D222E
T5 construct: made in house
T5 sequence (P63104 1-245 D213E): T1 sequence (P63104 1-245 N42Q) with Q42N, D213E
Method: as §1, §3

[7] = biological target: T6, 14-3-3c with phosphopeptide after removal of Val (Nicotiana tabacum, UniProt P93343); assay: ITC, FC binding to 14-3-3c with phosphopeptide lacking the C-terminal Val; settings: peptide with C-terminal Val deleted, FIG. 3b lower panel
T6 construct: Tobacco 14-3-3c (Gene bank AAC49892, amino acids 1-260 with an N-terminal His-tag); His-tag (N); made in house; host or cells: E. coli (14-3-3c); the phosphopeptide was synthesized by Biosyntan (Berlin)
Method: (§4) Binding of ligands to 14-3-3c was measured with a MCS isothermal titration calorimeter (MicroCal Inc., Northampton). Ligands (fusicoccin 0.4 mM; phosphopbeptides 0.5 mM) were titrated in 8 to 20 μl steps by injection into solutions containing 14-3-3c (0.05 mM) alone or 14-3-3c saturated with one of the ligands in 25 mM HEPES buffer pH 6.5, 10 mM MgCl2, 5 mM CaCl2, 5 mM DTE at 35° C. Binding isotherms were fitted using a single binding site model and used to calculate the binding enthalpy (ΔH) and association constant (Ka) of the binding reaction. Dissociation constants (KD=1/Ka), Gibbs free energy changes (ΔG=−RTInKa) and entropy changes (TΔS=ΔH−ΔG) were calculated from ΔH and Ka. For the binding of peptide to a FC/14-3-3c complex, we also used non-saturating conditions of FC and observed two binding events which were fitted independently to K1 and K4. All measurements were repeated at least three times.
(§5) PMA binding to-14-3-3 is unique in that the penultimate C-terminal residue is the phosphorylated threonine (YpTV-COOH). […] Taken together; this explains why there is no effect of FC on any other known 14-3-3-ligand interaction. To date, all plant proteins characterized as interacting directly with 14-3-3 homologs contain the consensus binding motifs with the notable exception of the plasma membrane H^+-ATPase. […]

[8] = biological target: T7, 14-3-3c preloaded with Gln-Ser-Tyr-pThr-Val-Pro (Nicotiana tabacum, UniProt P93343); assay: ITC, FC binding to 14-3-3c preloaded with C-terminally extended phosphopeptide; settings: peptide with added C-terminal Pro, FIG. 3b upper panel
T7 construct: Tobacco 14-3-3c (Gene bank AAC49892, amino acids 1-260 with an N-terminal His-tag); His-tag (N); made in house; host or cells: E. coli (14-3-3c); the phosphopeptide was synthesized by Biosyntan (Berlin)
T7 sequence (P93343 1-260): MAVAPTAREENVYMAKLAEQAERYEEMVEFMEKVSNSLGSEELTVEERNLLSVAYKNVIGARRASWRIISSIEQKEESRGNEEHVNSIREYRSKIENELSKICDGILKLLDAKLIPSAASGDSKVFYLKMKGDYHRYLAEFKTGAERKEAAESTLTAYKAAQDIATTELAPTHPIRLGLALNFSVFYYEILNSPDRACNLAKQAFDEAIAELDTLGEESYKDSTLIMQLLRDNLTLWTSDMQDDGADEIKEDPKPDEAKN
Method: as §4, §5

[9] = biological target: T8, 14-3-3-fusicoccin complex (Nicotiana tabacum, UniProt P93343); assay: Isothermal titration calorimetry, peptide binding to FC/14-3-3c complex; settings: for increase of the binding affinity of the peptide by fusicoccin: complete binding cycle, ITC
T8 construct: Tobacco 14-3-3c (Gene bank AAC49892, amino acids 1-260 with an N-terminal His-tag); His-tag (N); made in house; host or cells: E. coli
T8 sequence (P93343 1-260): T7 sequence (P93343 1-260)
Method: (§6) In order to obtain more quantitative data with respect to the phosphorylated pentapeptide used in the structural analysis, thermodynamic constants were determined by means of isothermal titration calorimetry (ITC, 16).
as §4

[10] = biological target: T9, binary 14-3-3/peptide complex (Nicotiana tabacum, UniProt P93343); assay: Isothermal titration calorimetry, FC titrated to 14-3-3c saturated with peptide; assay type: binding; settings: ITC, 35° C., pH 6.5
T9 construct: Tobacco 14-3-3c (Gene bank AAC49892, amino acids 1-260 with an N-terminal His-tag); His-tag (N); made in house; host or cells: E. coli (14-3-3c); the phosphopeptide was synthesized by Biosyntan (Berlin)
T9 sequence (P93343 1-260): T7 sequence (P93343 1-260)
Method: as §6, §4

[11] = biological target: T10, 14-3-3z I175E / GST-PMA2-CT66 (Homo sapiens, UniProt P63104, I166E); assay: GST-pulldown, 14-3-3 I175E; assay type: binding; settings: pull-down, mutation I175E
T10 construct: made in house
T10 sequence (P63104 1-245 I166E): T1 sequence (P63104 1-245 N42Q) with Q42N, I166E
Method: as §1, §2

14-3-3c = biological target: T11, 14-3-3c (Nicotiana tabacum, UniProt P93343); assay: Isothermal titration calorimetry, ligand binding to 14-3-3c alone; settings: for binding of the toxin by itself to 14-3-3: unliganded 14-3-3, no peptide
T11 construct: Tobacco 14-3-3c (Gene bank AAC49892, amino acids 1-260 with an N-terminal His-tag); His-tag (N); made in house; host or cells: E. coli
T11 sequence (P93343 1-260): T7 sequence (P93343 1-260)
Method: as §6, §4

[12] = biological target: T12, wild type 14-3-3 / PMA-GST fusion construct (66 C-terminal residues of PMA) (Homo sapiens, UniProt P63104); assay: Far-western-blot overlay, wild type 14-3-3; assay type: binding; settings: 0, 500 nM and 1000 nM fusicoccin
T12 construct: made in house
T12 sequence (P63104 1-245): T1 sequence (P63104 1-245 N42Q) with Q42N
Method: as §1, §3

[13] = biological target: T13, 14-3-3z I175E / PMA-GST fusion construct (Homo sapiens, UniProt P63104, I166E); assay: Far-western-blot overlay, 14-3-3 I175E; assay type: binding; settings: mutation I175E
T13 construct: made in house
T13 sequence (P63104 1-245 I166E): T1 sequence (P63104 1-245 N42Q) with Q42N, I166E
Method: as §1, §3

[14] = biological target: T14, 14-3-3z D222E / GST-PMA2-CT66 (Homo sapiens, UniProt P63104, D213E); assay: GST-pulldown, 14-3-3 D222E; assay type: binding; settings: pull-down, mutation D222E
T14 construct: made in house
T14 sequence (P63104 1-245 D213E): T1 sequence (P63104 1-245 N42Q) with Q42N, D213E
Method: as §1, §2

14-3-3 = biological target: T15, 14-3-3 (Nicotiana tabacum, UniProt P93343); assay: Binding of non-phosphorylated peptide to 14-3-3 (not shown, method not stated)
T15 sequence (P93343 1-260): T7 sequence (P93343 1-260)
Description: The phosphopeptide occupies the central binding groove of 14-3-3c in an extended conformation. The phosphate moiety of the phosphothreonine forms electrostatic interactions with a positively charged patch formed by residues Lys56, Arg63, and Arg136 and a H-bond to Tyr137 (FIG. 1b). […] Additionally, there are a number of H-bonds (cut-off limit 3.4 Å) between the peptide, mostly from the main-chain, and conserved protein side-chains. The peptide's C-terminal barboxylate is mostly contacted by basic residues and the side chains of the Val and Tyr residue flanking the phosphothreonine form van der Waals contacts to the protein (FIG. 1b). The structure confirms the notion that the C-terminal YTV-motif is highly conserved in plant P-type H^+-ATPases.

## C=CC(C)(C)OC[C@H]1O[C@H](O[C@@H]2C3=C([C@H](C)COC(C)=O)C[C@H](O)[C@]3(C)/C=C3/[C@@H](COC)CC[C@H]3[C@@H](C)[C@H]2O)[C@H](O)[C@@H](OC(C)=O)[C@@H]1O [Fusicoccin]
[1]
  fusicoccin mediated PMA binding: strong reduction
[2]
  solubility in aqueous solutions: insolubility
[3]
  fusicoccin mediated PMA binding: complete inhibition of binding
[4]
  fusicoccin mediated PMA binding: strong reduction
[5]
  fusicoccin mediated PMA binding: complete inhibition of binding
[6]
  fusicoccin mediated PMA binding: strong reduction
[7]
  FC binding: drastically weakens the binding
[7]; listed as FC
  FC binding: significant lower binding affinity
[8]
  FC binding: drastically weakens the binding
[8]; listed as FC
  FC binding: severely impaired
[9]
  increase of the binding affinity of the peptide by fusicoccin: 93 fold
[9]; listed as toxin
  increase of the binding affinity of the peptide by fusicoccin: more than 90 fold
[10]
  Kd: 0.7 µM
[11]
  fusicoccin mediated PMA binding: complete inhibition of binding
14-3-3c; calculated from K4 and K1×K2=K3×K4, read-out: affinity of FC to 14-3-3, more reliable value
  Kd: 66 µM
14-3-3c; direct ITC determination, somewhat unreliable, read-out: affinity of FC to 14-3-3
  Kd: ~50 µM
14-3-3c; listed as FC
  binding of the toxin by itself to 14-3-3: weak binding
14-3-3c; listed as toxin
  binding of the toxin by itself to 14-3-3: binds only weakly
[12]
  fusicoccin mediated interaction of 14-3-3 with PMA-GST: interaction was only observed in the presence of fusicoccin
[13]
  fusicoccin mediated PMA binding: complete inhibition of binding
[14]
  fusicoccin mediated PMA binding: strong reduction

## CC(C)[C@H](NC(=O)[C@@H](NC(=O)[C@H](Cc1ccc(O)cc1)NC(=O)[C@H](CO)NC(=O)[C@@H](N)CCC(N)=O)[C@@H](C)OP(=O)(O)O)C(=O)O [peptide, Gln-Ser-Tyr-pThr-Val] (H-QSY[pT]V-OH; N-terminus assumed)
[9]; 14-3-3-FC complex
  enthalpy (ΔH) of peptide binding: -11.8 kcal/mol
  −TAS of peptide binding: 0.4 kcal/mol
[9]; after saturation of the binding site with FC, FIG. 3A
  binding between 14-3-3 and the peptide: much tighter
14-3-3c
  Kd: 2.5 µM
14-3-3c; unliganded 14-3-3
  enthalpy (ΔH) of peptide binding: -10 kcal/mol
  −TAS of peptide binding: 1.7 kcal/mol

## Gln-Ser-Tyr-Thr-Val (QSYTV; printed: Gln-Ser-Tyr-Thr-Val) [non-phosphorylated version of the PMA2 C-terminal pentapeptide]
14-3-3
  binding to 14-3-3: binding could not be detected
